# “Also recorded” adds a separate entry of the source. Where no end group is shown, it is not given here.
# Key:
# [1] = tested on: C. muridarum CPAF; assay: GST-IncC cleavage by lysate of C. muridarum infected cells; assay type: biochemical; conditions: infected whole cell lysate
# Method: Cells were infected with an MOI of 1 and treated with CPAF inhibitor (SEQ ID NO:7) or control (SEQ ID NO:11) peptides at 12 hpi, fixed at 24 hpi and analyzed by IF with anti-L2 polyclonal antisera. Inclusion size was determined by measuring the inclusion diameter in μm by confocal microscopy of 50 infected cells. The number of cells with fragmented inclusions was determined by counting the number of infected cells out of 50 with more than one inclusion. (C) Sequence alignment and % sequence identify of full length CPAF and predicted inhibitory peptide sequence between C. trachomatis serovar LGV-L2, Chlamydia muridarum, and Chlamydophila caviae was determined using Geneious software (available at the Geneious website). […] GPIC or C. muridarum infected whole cell protein lysate was preincubated with SEQ ID NO:7 peptide or SEQ ID NO:11 control peptide, mixed with GST-IncC at 37° C., resolved by SDS-PAGE and stained with Coomassie blue. […] Inhibition of C. muridarum (E) and C. ceviae (F) growth was determined by counting the number of recovered IFUs. […] Inclusions were detected by IF with anti-LGV-L2 (A, B, E) antisera or anti-chlamydial LPS (F) monoclonal antibodies, and host nuclei sere detected by staining.
# [2] = target: T1, CPAF (Chlamydia trachomatis serovar D, UniProt O84866); assay: HPLC-based CPAF inhibition assay with Abz-tagged model substrate (SEQ ID NO:9); assay type: biochemical, C. trachomatis; set-up: 6xHis; made in house; host or cells: E. coli BL21 (DE3), plasmid pET30b-CPAF
# Method: FIG. 1 depicts the results of HPLC-based CPAF inhibition assays using a model CPAF substrate (SEQ ID NO:9) to compare inhibition of CPAF protease activity by SEQ ID NO:7, SEQ ID NO:2, and lactacystin. HPLC-based assays were performed in a final volume of 100 μL containing assay buffer, CPAF (62.5 nM), substrate 1 (0.5 mM), and varying concentrations of inhibitor (0-240 μM).
# HPLC-based assays comprised an Abz-tagged model CPAF substrate (SEQ ID NO:9) and were performed in a final volume of 100 μL containing 150 mM NaCl, 50 mM Tris pH 7.50, purified CPAF (62.5 nM), fluorescent-tagged model CPAF substrate (0.5 mM), and varying concentrations of each candidate compound (0-240 μM). IC50 values were determined by pre-incubating CPAF with varying concentrations of candidate compound for 5 min at room temperature prior to initiation of the reaction via the addition of model CPAF substrate. Reactions were allowed to proceed for 90 seconds at 25° C., followed by removal of 80 μL aliquots and quenching by the addition of 1.2 M HCl (40 μL). Data were converted to percent activity relative to a control reaction without candidate compound and fit to the following equation using GraFit v6.0, where [I] is the concentration of candidate compound and s is a slope factor: […]
# Target sequence in this assay (O84866 276-601): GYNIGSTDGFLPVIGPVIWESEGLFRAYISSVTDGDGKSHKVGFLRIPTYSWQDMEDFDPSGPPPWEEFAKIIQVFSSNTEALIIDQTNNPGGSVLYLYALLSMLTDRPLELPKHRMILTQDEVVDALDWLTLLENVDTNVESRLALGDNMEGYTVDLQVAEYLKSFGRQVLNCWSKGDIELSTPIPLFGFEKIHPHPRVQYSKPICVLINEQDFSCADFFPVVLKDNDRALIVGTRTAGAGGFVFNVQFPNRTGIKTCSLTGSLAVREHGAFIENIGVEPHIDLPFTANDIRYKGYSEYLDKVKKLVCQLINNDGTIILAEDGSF
# Target sequence in this assay (O84866 1-234, added parts left off): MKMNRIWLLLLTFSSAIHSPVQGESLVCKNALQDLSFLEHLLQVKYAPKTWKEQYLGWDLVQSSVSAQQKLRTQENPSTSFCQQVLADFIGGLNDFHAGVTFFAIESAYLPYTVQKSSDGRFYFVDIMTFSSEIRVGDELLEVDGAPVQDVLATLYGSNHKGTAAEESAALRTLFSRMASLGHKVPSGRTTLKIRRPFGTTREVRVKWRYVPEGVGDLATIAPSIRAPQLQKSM
# [3] = target: T1, CPAF; assay type: cell-based, C. trachomatis; set-up: endogenous in cells; host or cells: HeLa cells infected with C. trachomatis LGV-L2 434/Bu (the bacteria make the protein and secrete it into the host cytosol); conditions: L2-infected HeLa cells, peptide at 12 hpi, harvested 30 hpi; 2-10 μM for vimentin
# Method: Uninfected and HeLa cells pre-infected with L2 for 30 hrs were treated with inhibitory peptides and infected with EBs for 10 min Tarp translocation was indirectly visualized with an anti-phosphotyrosine antibody (A) and quantified by counting 50 separate cells (B). The stability of newly translocated Tarp was assessed by infecting cells as in (A) but with S^35-labeled EBs, followed by sequential immunoprecipitation of Tarp and MOMP and Phosphoimager analysis of precipitated material (C (I-IV)). […] IC50 values were determined by assessing CPAF cleavage of an Abz-tagged CPAF substrate (SEQ ID NO:9) by HPLC. Assays were performed the presence of increasing amount of inhibitors. […] Extracellular bacteria were determined. […] The number of internalized EBs was quantified per cell (H). […]
# Rabbits were immunized with recombinant GST fusions to Ct005, IncC, IncD, Tarp, and hexa-histidine-tagged CPAF produced in E. coli BL-21 (available from Stratagene) and purified by affinity chromatography. […] To assess CPAF cleavage of membrane proteins and EB proteins, purified membranes and soluble EB protein lysate were incubated with 6× his-CPAF at 37° C., and resulting product analyzed by immunoblot. […]
# To establish if CPAF was inhibited by SEQ ID NO:7 during infection, vimentin cleavage was assessed in C. trachomatis LGV-L2 434-infected HeLa cells after treatment with a range of concentrations (2-10 μM).
# Target sequence in this assay (O84866 276-601): as the sequence (O84866 276-601) above
# Target sequence in this assay (O84866 24-234): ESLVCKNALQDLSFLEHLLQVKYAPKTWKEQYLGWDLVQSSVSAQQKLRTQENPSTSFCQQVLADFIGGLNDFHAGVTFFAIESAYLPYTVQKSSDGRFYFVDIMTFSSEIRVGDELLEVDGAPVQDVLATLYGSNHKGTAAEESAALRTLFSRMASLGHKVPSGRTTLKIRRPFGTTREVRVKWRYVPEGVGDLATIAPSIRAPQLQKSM
substance,measurement,setting,value
SLFYSPMVPHFWAELRNHYATSGLKRRRRRRRRR-NH2 [SEQ ID NO:7],Inhibition of substrate cleavage by C. muridarum CPAF,[1],prevented cleavage of substrate; also recorded: inhibits C. muridarum CPAF
same,IC50,"[2]; CPAF 62.5 nM, substrate SEQ ID NO:9 0.5 mM, inhibitor 0-240 μM",50 ± 7 nM
same,CPAF inhibition relative to SEQ ID NO:2,"[2]; HPLC-based assay, greater than SEQ ID NO:2",about 30 fold
same,CPAF inhibition relative to lactacystin,"[2]; HPLC-based assay, greater than lactacystin",about 200 fold
same,Inhibition of CPAF-mediated cleavage of vimentin and Puma in infected cells,[3],markedly inhibited; also recorded: loss of vimentin processing; also recorded: Vimentin and Puma cleavage was inhibited

# From patent publication US8617563B2, “Antichlamydial agents” (Duke University, priority 2011, dated 2013)
